Data on one compound can be found in patent US20260167614A1, “IDENTIFICATION OF SMALL MOLECULES THAT RECRUIT AND ACTIVATE RNASE L” (UNIVERSITY OF FLORIDA RESEARCH FOUNDATION, INCORPORATED, priority 2022, published 2026).

In experiment [1] the test system is pre-miR-21. The experiment in a line: RT-qPCR of pre-miR-21 in CRISPR-Control sgRNA MDA-MB-231 cells. Conditions: 5 μM. In kind it is cell-based. The method, then: Two CRISPR-modified MDA-MB-231 cell lines with either a scrambled control guide RNA (“Control sgRNA”; RNase L is expressed) or with an RNase L-targeting guide RNA (“RNase L-Targeting sgRNA”; RNase L protein abundance is knocked down) were used to complete these studies.
MDA-MB-231 cells were treated with compound (0.1% DMSO final concentration) for 24 h, followed by removal of the compound-containing medium and redosing in growth medium for an additional 24 h (total treatment period of 48 h), with the exception of invasion assays in which the cells were treated overnight. For the time-course experiment, MDA-MB-231 cells were treated for the indicated lengths of time. MCF-10A cells, also used in invasion assays, were treated with compound overnight (0.1% DMSO final concentration).
RNA Isolation and Quantitative Real-Time Polymerase Chain Reaction (RT-qPCR). MDAMB-231 cells were cultured as described in “Cell Culture.” After compound treatment, total RNA was extracted using a Quick-RNA Miniprep Kit (Zymo) per the manufacturer's instructions. […] RT-qPCR was performed on a QuantStudio5™ Real-Time PCR Instrument (Applied Biosystems) using Power SYBR Green Master Mix (Applied Biosystems), and the resulting data were analyzed using the ΔΔCt method.

The test system of experiment [2] is PDCD4. Kind of experiment: Western blot of PDCD4. In kind it is cell-based. The method, then:
RiboTAC 7 was then assessed for its ability to affect protein levels by deactivation of a miR-21-mediated cancer circuit, i.e., derepression of PDCD4. […] Proteome-wide analysis was also completed to study the effects of 7 and a locked nucleic acid (LNA) oligonucleotide that targets miR-21-5p on the proteome. The concentrations tested of both provided similar activity (5 nM of 7 and 100 nM of the LNA), as assessed by their effect on PDCD4 levels, ˜40% enhancement. […] Neither modality affected proteins that are direct targets of miRNA let-7b-5p, further supporting that RiboTAC 7 is selectively deactivating a miR-21-mediated cancer circuit in cells (FIG. 11C-11D).
Quantification of Protein Levels by Western Blotting. MDA-MB-231 cells were treated as described in “Cell Culture.” After treatment, the medium was removed, and the cells were washed with 1× Dulbecco's phosphate-buffered saline (DPBS). Total protein was extracted using Mammalian Protein Extraction Reagent (M-PER, Thermo Scientific) according to the manufacturer's protocol. Protein concentration was measured using a Pierce Micro BCA Protein Assay kit (Fisher Scientific). […]
Western blots were quantified using ImageJ (National Institutes of Health).^12 Protein expression was normalized to […] abundance. […]
(In general: Immunoblotting shows a protein as a band on a membrane.)

For experiment [3], the system named is pre-miR-21. Kind of experiment: In vitro cleavage of dually labeled pre-miR-21 with RNase L. The settings on record: incubated with RNase L. Format: biochemical.

Take `CNC(=O)[C@H](c1ccccc1)N(C)Cc1ccc(-c2cccc(-c3sccc3NC(=O)CCOCCOCCOCCC(=O)NCCN3CCN(c4ccc5nc(-c6c(N)c7c(F)cccc7[nH]c6=O)[nH]c5c4)CC3)c2)cc1` [RiboTAC 7, (S)—N-(2-(4-(2-(4-amino-5-fluoro-2-oxo-1,2-dihydroquinolin-3-yl)-1H-benzo[d]imidazol-6-yl)piperazin-1-yl)ethyl)-3-(2-(2-(3-((2-(4′-((methyl(2-(methylamino)-2-oxo-1-phenylethyl)amino)methyl)-[1,1′-biphenyl]-3-yl)thiophen-3-yl)amino)-3-oxopropoxy)ethoxy)ethoxy)propanamide]: in experiment [1] (48 h treatment, RNase L expressed), the “reduction of pre-miR-21 abundance” value is recorded as ~30%. Also, the “treatment time at which pre-miR-21 degradation is first detectable” value in experiment [1] (time-course) came out at 48 h. In experiment [2] (5 nM of 7 and 100 nM of the LNA as printed), the “enhancement of PDCD4 levels” value is ~40%. Besides, in experiment [2] (5 μM, CRISPR-Control sgRNA MDA-MB-231 cells), the “increase of PDCD4 protein levels” value was ~40%. The “cleavage of pre-miR-21 construct labeled with 6-FAM and BHQ” value in experiment [3] is recorded as “induced dose-dependent cleavage of pre-miR-21”.
